The source of these data is ChEMBL document CHEMBL3525909, “Metabolism of LY654322, a growth hormone secretagogue, to an unusual diimidazopyridine metabolite” (Drug Metab Dispos, 2011).

Data set [1] in a line: Plasma clearance in beagle dog at 1 mg/kg, iv. The format is ADME, organism-based, Canis lupus familiaris. Also on record: dose 1 mg/kg, route intravenous.
Data set [2] relates to Plasma. As to the kind of experiment: Drug metabolism in Fischer 344 rat plasma assessed as (R)-2-(4-amino-1H-imidazol-1-yl)-2-(4-fluorophenyl)-1-(pyrrolidin-1-yl)propan-1-one formation at 3 mg/kg, iv by LC-MS analysis. It is filed as ADME, organism-based. Also on record: dose 3 mg/kg, route intravenous. Conditions: in vivo.
The nature of data set [3]: Drug excretion in Fischer 344 rat urine assessed as (2R,2'R)-2,2'-(diimidazo[4,5-b:4',5'-e]pyridine-1,7-diyl)bis(2-(4-fluorophenyl)-1-(pyrrolidin-1-yl)propan-1-one) formation at 3 mg/kg, iv and 30 mg/kg, po by LC-MS analysis. To be noted: in vivo. It is filed as ADME, organism-based.
A short description of data set [4]: Drug excretion in Fischer 344 rat urine assessed as (2R,2'R)-2,2'-(diimidazo[4,5-b:4',5'-e]pyridine-1,7-diyl)bis(2-(4-fluorophenyl)-1-(pyrrolidin-1-yl)propan-1-one) formation at 3 mg/kg, iv and 30 mg/kg, po by LC-UV spectrophotometry. To be noted: in vivo. It is filed as ADME, organism-based.
Data set [5] can be described thus: Terminal half life in beagle dog at 1 mg/kg, iv. It is filed as ADME, organism-based, Canis lupus familiaris. Also on record: dose 1 mg/kg, route intravenous. Conditions: in vivo, read-out: beta t1/2 (converted).
Data set [6] relates to Plasma. As to the kind of experiment: Drug metabolism in Fischer 344 rat plasma assessed as (R)-2-(2-amino-2-methylpropanamido)-5-phenylpentanoic acid formation at 3 mg/kg, iv by LC-MS analysis. The format is ADME, organism-based. Also on record: dose 3 mg/kg, route intravenous. To be noted: in vivo.
Data set [7] can be described thus: Drug excretion in Fischer 344 rat urine assessed as (R)-2-(4-amino-1H-imidazol-1-yl)-2-(4-fluorophenyl)-1-(pyrrolidin-1-yl)propan-1-one formation at 3 mg/kg, iv and 30 mg/kg, po by LC-MS analysis. The format is ADME, organism-based. Conditions: in vivo.
The nature of data set [8]: Drug metabolism in human hepatocytes assessed as (2R,2'R)-2,2'-(diimidazo[4,5-b:4',5'-e]pyridine-1,7-diyl)bis(2-(4-fluorophenyl)-1-(pyrrolidin-1-yl)propan-1-one) formation at 50 uM after 4 hrs. It is filed as ADME, cell-based, Hepatocyte.
A short description of data set [9]: Terminal half life in Fischer 344 rat at 3 mg/kg, iv. Conditions: in vivo, read-out: beta t1/2 (converted). Also on record: dose 3 mg/kg, route intravenous. It is filed as ADME, organism-based.
Data set [10] in a line: Drug excretion in beagle dog urine assessed as (2R,2'R)-2,2'-(diimidazo[4,5-b:4',5'-e]pyridine-1,7-diyl)bis(2-(4-fluorophenyl)-1-(pyrrolidin-1-yl)propan-1-one) formation at 20 mg/kg, po by LC-MS analysis. It is filed as ADME, organism-based, Canis lupus familiaris. Also on record: dose 20 mg/kg, route oral. Conditions: in vivo.
Data set [11] in a line: Plasma clearance in Fischer 344 rat at 3 mg/kg, iv. The format is ADME, organism-based. Also on record: dose 3 mg/kg, route intravenous.
The test system of data set [12] is Plasma. The data set is described as follows: Drug metabolism in beagle dog plasma assessed as (R)-2-(4-amino-1H-imidazol-1-yl)-2-(4-fluorophenyl)-1-(pyrrolidin-1-yl)propan-1-one formation at 1 mg/kg, iv by LC-MS analysis. Conditions: in vivo. Also on record: dose 1 mg/kg, route intravenous. The format is ADME, organism-based, Canis lupus familiaris.
Data set [13] relates to Liver. The data set is described as follows: Drug metabolism in rat liver slices assessed as (2R,2'R)-2,2'-(diimidazo[4,5-b:4',5'-e]pyridine-1,7-diyl)bis(2-(4-fluorophenyl)-1-(pyrrolidin-1-yl)propan-1-one) formation at 50 uM after 24 hrs. It is filed as ADME, tissue-based.
Data set [14] relates to Liver. As to the kind of experiment: Drug metabolism in dog liver slices assessed as (2R,2'R)-2,2'-(diimidazo[4,5-b:4',5'-e]pyridine-1,7-diyl)bis(2-(4-fluorophenyl)-1-(pyrrolidin-1-yl)propan-1-one) formation at 50 uM after 24 hrs. It is filed as ADME, tissue-based, Canis lupus familiaris.
Data set [15] can be described thus: Oral bioavailability in beagle dog at 3 mg/kg. It is filed as ADME, organism-based, Canis lupus familiaris. Conditions: in vivo.
Data set [16] in a line: Drug excretion in beagle dog urine assessed as (R)-2-(4-amino-1H-imidazol-1-yl)-2-(4-fluorophenyl)-1-(pyrrolidin-1-yl)propan-1-one formation at 20 mg/kg, po by LC-MS analysis. It is filed as ADME, organism-based, Canis lupus familiaris. Also on record: dose 20 mg/kg, route oral. To be noted: in vivo.
The nature of data set [17]: Oral bioavailability in Fischer 344 rat at 30 mg/kg. The format is ADME, organism-based. Conditions: in vivo.
The test system of data set [18] is Plasma. The data set is described as follows: Drug level in Fischer 344 rat plasma treated with 2-Methylalanyl-N-{1-[(1R)-1-(4-fluorophenyl)-1-methyl-2-oxo-2-pyrrolidin-1-ylethyl]-1H-imidazol-4-yl}-5-phenyl-D-norvalinamide at 3 mg/kg, iv by LC-MS/MS analysis. The format is ADME, organism-based. Also on record: dose 3 mg/kg, route intravenous. To be noted: in vivo.

Data set [19] can be described thus: Drug level in beagle dog urine treated with 2-Methylalanyl-N-{1-[(1R)-1-(4-fluorophenyl)-1-methyl-2-oxo-2-pyrrolidin-1-ylethyl]-1H-imidazol-4-yl}-5-phenyl-D-norvalinamide at 20 mg/kg, po by LC-MS analysis. The format is ADME, organism-based, Canis lupus familiaris. Also on record: dose 20 mg/kg, route oral. To be noted: in vivo.
Data set [20] relates to Plasma. As to the kind of experiment: Drug level in beagle dog plasma treated with 2-Methylalanyl-N-{1-[(1R)-1-(4-fluorophenyl)-1-methyl-2-oxo-2-pyrrolidin-1-ylethyl]-1H-imidazol-4-yl}-5-phenyl-D-norvalinamide at 1 mg/kg, iv by LC-MS/MS analysis. Also on record: dose 1 mg/kg, route intravenous. The format is ADME, organism-based, Canis lupus familiaris. Conditions: in vivo.

Data set [21] is described as follows: Drug level in Fischer 344 rat urine treated with 2-Methylalanyl-N-{1-[(1R)-1-(4-fluorophenyl)-1-methyl-2-oxo-2-pyrrolidin-1-ylethyl]-1H-imidazol-4-yl}-5-phenyl-D-norvalinamide at 3 mg/kg, iv and 30 mg/kg, po by LC-MS analysis. It is filed as ADME, organism-based. To be noted: in vivo.
Data set [22] in a line: Drug level in Fischer 344 rat urine treated with 2-Methylalanyl-N-{1-[(1R)-1-(4-fluorophenyl)-1-methyl-2-oxo-2-pyrrolidin-1-ylethyl]-1H-imidazol-4-yl}-5-phenyl-D-norvalinamide at 3 mg/kg, iv and 30 mg/kg, po by LC-UV spectrophotometry. It is filed as ADME, organism-based. Conditions: in vivo.

As usually defined, the clearance is the volume of plasma or blood freed of the substance per unit of time. Lower therefore signals inefficient removal. For orientation: bioavailability means dose-corrected exposure relative to a reference, in per cent. Higher therefore signals good availability.

Consider `CC(C)(N)C(=O)N[C@H](CCCc1ccccc1)C(=O)Nc1cn([C@@](C)(C(=O)N2CCCC2)c2ccc(F)cc2)cn1`, for which the clearance was found to be 33 mL/min/kg in data set [1] and 75 mL/min/kg in data set [11]. Besides, the Drug metabolism result is given as “metabolite_detected” in data set [2]; “metabolite_detected” in [6]; “metabolite_not_detected” in data set [8]; “metabolite_detected” in data set [12]; “metabolite_not_detected” in data set [13]; “metabolite_not_detected” in data set [14]. Besides, the Drug excretion entry in [3], in data set [4], in data set [7], in [10] and in data set [16] was “metabolite_detected” each time. The half-life in [5] is 5 h; in data set [9], 2 h. Also, the bioavailability came to 33% in data set [15] and 74% in data set [17].
Consider `C[C@](C(=O)N1CCCC1)(c1ccc(F)cc1)n1cnc(N)c1`, for which the Drug metabolism result in data set [18] and in data set [20] was “metabolite_detected” each time. The Drug excretion result in data set [19] and in [21] was “metabolite_detected” in each case.
For the compound `CC(C)(N)C(=O)N[C@H](CCCc1ccccc1)C(=O)O`, the Drug metabolism result in [18] is listed as “metabolite_detected”.
On to `C[C@](C(=O)N1CCCC1)(c1ccc(F)cc1)n1cnc2nc3ncn([C@@](C)(C(=O)N4CCCC4)c4ccc(F)cc4)c3cc21`, for which the Drug excretion result in [19], in [22] and in [21] was “metabolite_detected” in each case.
